Measured values: patent US20060094693A1, “Methods and compositions for treating glucose-associated conditions, metabolic syndrome, dyslipidemias and other conditions” (Point Therapeutics, Inc., priority 2004, published 2006)

What was measured:
[1] = tested on: Lewis rats; assay: in vivo; conditions: Lewis, rat, in vivo, 5 days
Protocol: (§2) Serum DPP-IV inhibition and observation of acute toxicity of amino boronic dipeptides in Lewis rats. […] After observations were completed or at the onset of a moribund state, humane euthanasia was performed by asphyxiation in 100% CO2.

[2] = in vivo; conditions: Lewis, rat, in vivo
Protocol: as §2

[3] = tested on: Zucker Diabetic Fatty (ZDF) rats; assay: 6 week glycemic control study in Zucker Diabetic Fatty rats; format: in vivo
Protocol: The design of the 6 week long study is depicted in FIG. 8. 60 male Zucker Diabetic Fatty (ZDF) rats (5 weeks of age) were obtained from Charles River Labs. The animals are housed singly and allowed to acclimatize for 1 week before the initiation of the study. 24-hour food intake and body weight was measured gravimetrically twice weekly from the start of housing. HbA1C levels were measured at Day 0, 7, 14, 28 and 46. OGTT was administered on Day 2-3, 15 minutes after the administration of the drugs. OGTT was administered again at the end of the study but in this case, drugs were given 15 hours prior to the OGTT. The 24-hour glucose profile was monitored at day 14-15 of the study.
The insulin sensitivity index was calculated at the termination of the study according to the method described by Matsuda and DeFronzo (Diabetes Care. 1999 Sep.;22(9):1462-70).

[4] = tested on: serum KC/CXCL1; assay: Serum KC/CXCL1 levels in vivo (ELISA); parameters: species or system BALB/c mice; conditions: 0.2-200 μg/mouse oral, 2 hours
Protocol: (§1) Assay ofserum DPP-IV inhibition and KC/CXCL1 levels in vivo. […] Each mouse received a single administration of each amino boronic dipeptide or saline, and blood samples were withdrawn from mice 2 hours later.
Serum concentration of mouse KC/CXCL1 was determined by Quantikine enzyme-linked immunosorbent assay (ELISA; R&D Systems, Minneapolis, Minn.) according to the manufacturer's instructions. ELISA was performed in duplicate for each sample.

[5] = biological target: T1, serum DPP-IV (Mus musculus, UniProt P28843); assay: Serum DPP-IV inhibition in vivo after oral gavage (Example 2); parameters: species or system BALB/c mice
T1 construct: from tissue; host or cells: serum of BALB/c mice dosed orally
Protocol: Assay of serum DPP-IV inhibition in vivo. […] DPP-IV activity was determined by reaction of 10 μl serum with 90 μl of 0.11 mM Ala-Pro-AFC (Enzyme System Products, Dublin, Calif.) in 50 mM HEPES/Na buffer pH 7.6, 140 mM NaCl.

[6] = tested on: Zucker fa/fa rats; assay: Rat oral glucose tolerance test (glucose, insulin, GLP-1); format: in vivo; conditions: 10 μmol/kg oral
From the text: Protocol for rat oral glucose tolerance test (OG7T). […] On days −11 to −8, rats were fitted with intra-arterial catheters under light isoflurane anesthesia. […] From 12:00 a.m.

[7] = tested on: Zucker fa/fa rats; assay: Single oral dose before oral glucose challenge, Zucker Fa/Fa rats (Example 10); format: in vivo; conditions: single oral dose 15 minutes prior to oral glucose
From the text: The data shown in FIG. 15 are mean values from 6 rats per treatment.

[8] = biological target: T1, serum DPP-IV; assay: Serum DPP-IV activity 2 hours after oral amino boronic dipeptides (Example 4); format: in vivo, BALB/c mice; conditions: 20 and 200 μg doses
Protocol: as §1
Serum DPP-IV activity was determined by reaction of a 10 μl volume of serum with 0.1 mM Ala-Pro-AFC (Enzyme System Products, Dublin, Calif.) in a 100 μl volume of 50 mM HEPES/Na buffer pH 7.6, 140 mM NaCl. […] Serum DPP-IV activity was expressed as fluorescent units (FU).

[9] = tested on: DIO rats; assay: Single oral dose before oral glucose challenge, DIO rats (Example 10); format: in vivo; conditions: single oral dose 15 minutes prior to oral glucose
From the text: The data shown in FIG. 16A are mean values from 10 rats per treatment.
The data shown in FIG. 16B are mean values from 10 rats per treatment.

[10] = tested on: ob/ob mice; assay: Mouse oral glucose tolerance test (OGTT); format: in vivo
Protocol: Protocol for mouse oral glucose tolerance test (OGTT). The day of oral-glucose challenge was defined as day 0. […] Agents were administered by oral gavage. Mice were restricted to a diet of 50% of their individual calculated food intake from day −1 onwards. On day 0, blood glucose was measured at […]. immediately followed by drug administration. At time point 0, glucose was administered by oral gavage (1g/kg), and blood glucose was measured at time points 0, 30, 60, 120 and 240 minutes. Means±SE were calculated from the data of individual mice in drug-treatment groups 1 and 2.

[11] = biological target: T2, soluble recombinant human DPP-IV (Homo sapiens, UniProt P27487); assay: In vitro assay of enzymatic activity of recombinant soluble DPP-IV and inhibition by amino boronic dipeptides; format: biochemical; conditions: assayed 3 minutes, 78 minutes and 16 hours after addition of Ala-Pro-AFC
T2 construct: immunoglobulin kappa light chain secretion signal (pSecTag2-B) (N, cleaved yes); made in house; host or cells: 293T cells, transient transfection; unpurified culture supernatant used
From the text: Production of soluble recombinant human DPP-IV. Based on information on the N-terminus of serum DPP-IV (15), a truncated DPP-IV was engineered in which a signal/leader sequence was joined to the residue in DPP-IV corresponding to the N-terminus of serum DPP-IV to allow secretion. The cDNA encoding the desired truncated human DPP-IV dimer enzyme was engineered into the mammalian secretion vector pSecTag2 (Cat# V900-20, InVitrogen Corporation). The vector, available in A, B or C versions, representing three possible phases for gene fusion, contained an immunoglobulin-kappa light chain secretion signal followed by a selection of restriction sites for gene insertion. The fusion required engineering a restriction site upstream of the chosen fusion amino acid in the 5′ end of the DPP-IV dimer enzyme nucleic acid in phase with the chosen restriction site (Sfi I) in the vector secretion sequence. The chosen fusion amino acid in the 5′ end of the DPP-IV (Ser39) was 3′ of the trans-membrane anchoring domain. The pSecTag2 version B and its Sfi I restriction site was chosen for the fusion because it minimizes the additional N-terminal, vector-encoded residues in the mature secreted protein.
Construction of the fusion was as follows. First, total RNA was isolated from the Caco-2 colorectal carcinoma cell line (ATCC HTB-37) by standard Trizol/phenol/chloroform methodology. The purified RNA (approx. 2.5 μg in a 20 μl reaction) was used to make cDNA using oligo-dT primer and a commercial reverse transcription (RT) kit (InVitrogen). […] The following thermal cycler program was used: 94° C. for 45 sec. initial denaturation, then 30 cycles of 94° C., 10 sec.; 48° C., 6 sec.; 60° C., 4 min; followed by 5-min. extension at 72° C. after cycling.
DNA from the plasmid encoding DPP-IV dimer enzyme was prepared on an approximately 400 μg scale from overnight 30 ml cultures in Luria broth with 100 μg ampicillin per ml using a commercial kit (Qiagen Maxiprep Kit).
In vitro assay of enzmatic activity ofrecombinant soluble DPP-IV and inhibition by amino boronic dipeptides. The assay reaction mixture consisted of 135 μl 50 mM HEPES/Na buffer pH 7.6, 140 mM NaCl, 10-15 gl enzyme-containing culture supernatant, dipeptide substrate Ala-Pro-(7-amino-4-trifluoromethyl coumarin) (Ala-Pro-AFC; Enzyme System Products, Dublin, Calif.) at typically 0.1-1 mM added from a 100 or 400 mM stock in dimethyl formamide. The reaction mixture was incubated at room temperature, and production of the fluorescent AFC product was measured in a fluorometer (excitation, 400 nm; emission 505 nm), either by continuous monitoring or after termination with a one to one-tenth volume of 1 -M sodium acetate, pH 4.5. Fluorometric reading were made with a Molecular Dynamics Spectra Max GeminiXS capable of reading 96-well microtiter plates. The inhibitory activity of amino boronic dipeptides was investigated by preincubation of assay reaction mixtures with varying concentrations of each compound for 10 minutes before the addition of the substrate Ala-Pro-AFC.

T1 sequence (P28843 37-760 limits assumed): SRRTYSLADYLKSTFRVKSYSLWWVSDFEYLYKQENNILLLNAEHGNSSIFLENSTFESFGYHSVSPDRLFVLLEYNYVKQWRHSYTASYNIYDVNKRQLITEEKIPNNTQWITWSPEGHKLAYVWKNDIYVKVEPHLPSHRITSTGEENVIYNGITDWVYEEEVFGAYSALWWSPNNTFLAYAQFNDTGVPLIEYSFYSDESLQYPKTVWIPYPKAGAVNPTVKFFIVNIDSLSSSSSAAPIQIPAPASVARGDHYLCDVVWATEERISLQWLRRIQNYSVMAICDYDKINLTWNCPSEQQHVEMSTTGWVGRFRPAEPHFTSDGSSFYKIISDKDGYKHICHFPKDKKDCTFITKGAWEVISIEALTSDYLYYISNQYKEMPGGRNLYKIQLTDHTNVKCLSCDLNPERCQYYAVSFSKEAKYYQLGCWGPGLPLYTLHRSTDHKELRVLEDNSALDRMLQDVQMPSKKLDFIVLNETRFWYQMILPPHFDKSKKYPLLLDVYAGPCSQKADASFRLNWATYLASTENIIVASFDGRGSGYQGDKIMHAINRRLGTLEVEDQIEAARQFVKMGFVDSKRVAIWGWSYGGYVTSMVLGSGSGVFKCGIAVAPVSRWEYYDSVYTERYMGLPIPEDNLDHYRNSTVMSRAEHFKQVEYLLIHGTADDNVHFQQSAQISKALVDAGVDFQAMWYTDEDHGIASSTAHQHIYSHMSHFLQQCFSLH
T2 sequence (P27487 39-766 limits assumed): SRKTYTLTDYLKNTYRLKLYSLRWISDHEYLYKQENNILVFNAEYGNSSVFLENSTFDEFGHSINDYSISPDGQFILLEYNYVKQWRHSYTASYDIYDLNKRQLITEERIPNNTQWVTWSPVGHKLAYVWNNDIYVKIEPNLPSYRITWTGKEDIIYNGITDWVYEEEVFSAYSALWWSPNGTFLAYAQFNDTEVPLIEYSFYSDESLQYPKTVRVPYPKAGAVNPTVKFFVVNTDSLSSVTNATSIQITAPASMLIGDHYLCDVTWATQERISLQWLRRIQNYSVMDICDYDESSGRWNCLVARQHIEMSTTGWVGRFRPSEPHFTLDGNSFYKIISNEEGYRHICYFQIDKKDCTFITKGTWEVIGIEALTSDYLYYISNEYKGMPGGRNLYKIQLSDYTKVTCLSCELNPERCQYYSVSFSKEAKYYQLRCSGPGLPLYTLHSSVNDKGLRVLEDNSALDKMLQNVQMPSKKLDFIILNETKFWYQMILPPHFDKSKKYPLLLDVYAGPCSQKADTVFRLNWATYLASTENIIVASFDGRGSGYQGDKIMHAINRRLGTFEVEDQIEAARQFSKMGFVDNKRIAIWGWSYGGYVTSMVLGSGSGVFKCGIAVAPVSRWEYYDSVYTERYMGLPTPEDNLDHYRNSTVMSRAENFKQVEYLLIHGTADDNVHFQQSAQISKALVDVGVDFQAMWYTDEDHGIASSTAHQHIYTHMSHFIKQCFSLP

N[C@@H](CCC(=O)O)C(=O)N1CCC[C@H]1B(O)O [Glu-boroPro, glutamic acid boroproline]
MTD (maximum tolerated dose) [1]: 15,000 μg/kg | MTD at 5 days [2]: 15 mg/kg | AUC of 24 hour glucose profile ([3]; 10 μmole/kg, day 14-15): achieve significance | triglyceride (TG) lowering ([3]; 3 micromole/kg, 46 days of treatment): significant improvement | food intake over time ([3]; 10 micromole/kg): apparent slight decrease in food intake | triglyceride (TG) lowering ([3]; 10 micromole/kg, 46 days of treatment): significant improvement | HbA1C level compared to vehicle ([3]; 10 micromole/kg, Day 46): significant reduction | OGTT glucose levels compared to vehicle ([3]; 10 micromole/kg, OGTT 15 hours after drug, end of study): significant reduction in glucose levels | 24-hour glucose profile ([3]; 10 micromole/kg, day 14-15): improved compared to the metformin and the NVP-LAF237 groups | rate of increase in HbA1C over time ([3]; 10 micromoles/kg, Day 0 to Day 46): decline in the rate of increase in HbA1C was most prominent | free fatty acids (FFA) ([3]; 46 days of treatment, compared to vehicle): trend towards free fatty acids (FFA) reduction but this did not reach significance | serum levels of KC/CXCL1 [4]: failed to affect serum levels of KC/CXCL1 at any of the doses tested | ID50 (dose reducing serum DPP-IV activity by 50% of baseline) ([5]; BALB/c mice, single oral dose, 2 hours): 1 μg per mouse | serum DPP-IV inhibition persisting ([5]; single oral 5 μg or 20 μg per mouse, until at least 6 hours): greater than 80% | blood glucose excursion ([6]; 15 min before glucose 2 g/kg): reduced | blood plasma level of GLP-1 ([6]; after oral glucose challenge): increased | blood plasma level of insulin ([6]; after oral glucose challenge): increased | insulin response [7]: improved insulin response | serum DPP-IV activity [8]: maximally inhibited serum DPP-IV activity | insulin response [9]: improved insulin response | insulin secretion calculated from AUC [9]: increased insulin secretion | glucose excursion post oral glucose challenge ([10]; 1.0 μmol/kg oral, 15 minutes prior to glucose): reduced | anti-glycemic effect, area under the blood glucose curve ([10]; single 1.0 μmol/kg dose): significant | persistence of DPP-IV inhibition after preincubation [11]: sustained DPP-IV inhibition
